The DC50 is the concentration giving 50% degradation. As usually defined, the Dmax is the greatest extent of degradation seen.

Read-outs that look alike come from different tables or passages of the source. Bounds are passed on as bounds.

This test addresses T1, androgen receptor (AR) (Homo sapiens, UniProt P10275).
T1 sequence (P10275 1-920): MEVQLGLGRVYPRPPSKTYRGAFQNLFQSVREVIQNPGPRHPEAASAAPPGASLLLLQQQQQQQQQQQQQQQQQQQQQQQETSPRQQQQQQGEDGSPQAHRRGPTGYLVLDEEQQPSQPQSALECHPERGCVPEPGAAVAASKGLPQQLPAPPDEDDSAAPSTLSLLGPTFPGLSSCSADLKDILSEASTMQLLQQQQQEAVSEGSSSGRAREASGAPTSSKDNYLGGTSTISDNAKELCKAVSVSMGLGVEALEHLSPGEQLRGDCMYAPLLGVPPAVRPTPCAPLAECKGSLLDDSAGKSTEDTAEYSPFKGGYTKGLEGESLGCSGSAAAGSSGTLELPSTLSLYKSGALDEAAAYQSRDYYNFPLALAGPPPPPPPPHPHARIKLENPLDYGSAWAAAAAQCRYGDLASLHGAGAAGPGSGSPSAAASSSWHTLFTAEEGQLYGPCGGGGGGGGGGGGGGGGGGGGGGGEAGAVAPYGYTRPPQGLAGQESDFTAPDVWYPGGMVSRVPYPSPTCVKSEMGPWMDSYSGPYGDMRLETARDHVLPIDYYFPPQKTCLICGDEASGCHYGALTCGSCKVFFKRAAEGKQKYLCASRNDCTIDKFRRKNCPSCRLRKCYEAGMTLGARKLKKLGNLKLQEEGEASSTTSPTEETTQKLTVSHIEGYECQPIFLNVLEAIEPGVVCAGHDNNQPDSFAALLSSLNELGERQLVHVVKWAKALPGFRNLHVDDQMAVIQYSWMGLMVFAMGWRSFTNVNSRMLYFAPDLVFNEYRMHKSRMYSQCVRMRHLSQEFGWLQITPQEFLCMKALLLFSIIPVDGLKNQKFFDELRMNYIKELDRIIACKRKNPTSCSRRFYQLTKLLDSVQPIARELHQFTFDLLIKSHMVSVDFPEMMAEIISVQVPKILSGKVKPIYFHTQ
Nature of the test: Degradation of androgen receptor (AR) protein in VCaP cells by ELISA. The class given is cell-based. Particulars: for Dmax: VCaP.

[1] abbreviates: AR degradation, VCaP cells, 16 h, ELISA, Table 3-1, read-out: DC50.
The mark [2] stands for this setting: AR degradation, VCaP cells, 16 h, ELISA, Table 3-1, read-out: Dmax (%).

Regarding `N#Cc1ccc(O[C@H]2CC[C@H](NC(=O)c3cnc(N4CCC(CN5CCC6(CC5)CN(c5cc7c(cc5F)C(=O)N(C5CCC(=O)NC5=O)C7=O)C6)CC4)nc3)CC2)cc1Cl` (stereo partly drawn) [Compound 268], under setting [1], the 50% degradation concentration (DC50) is below 10 nM. The Dmax under setting [2] was above 80%.
Taken in the same sequence, the figures for `N#Cc1ccc(O[C@H]2CC[C@H](NC(=O)c3ccc(N4CCC5(CC4)CC(N4CCN(c6cc7c(cc6F)C(=O)N(C6CCC(=O)NC6=O)C7=O)CC4)C5)nn3)CC2)cc1Cl` (stereo partly drawn) [Compound 269] were below 10 nM and above 80%.
For `N#Cc1ccc(O[C@H]2CC[C@H](NC(=O)c3ccc(N4CCN(C5CC6(CCN(c7cc8c(cc7F)C(=O)N(C7CCC(=O)NC7=O)C8=O)CC6)C5)CC4)nn3)CC2)cc1Cl` (stereo partly drawn) [Compound 270, N-((1r,4r)-4-(3-chloro-4-cyanophenoxy)cyclohexyl)-6-(4-(7-(2-(2,6-dioxopiperidin-3-yl)-6-fluoro-13-dioxoisoindolin-5-yl) -7-azaspiro[3.5]nonan-2-yl)piperazin-1-yl)pyridazine-3-formamide], in that order: below 10 nM and above 80%.
For `N#Cc1ccc(O[C@H]2CC[C@H](NC(=O)c3ccc(N4CCN(C5CC6(CCN(c7ccc8c(c7)C(=O)N(C7CCC(=O)NC7=O)C8=O)CC6)C5)CC4)nn3)CC2)cc1Cl` (stereo partly drawn) [Compound 271, N-((1r,4r)-4-(3-chloro-4-cyanophenoxy)cyclohexyl)-6-(4-(7-(2-(2,6-dioxopiperidin-3-yl)-1,3-dioxoisoindolin-5-yl)-7-azaspiro[3.5]nonan-2-yl)piperazin-1-yl)pyridazine-3-formamide], in that order: below 10 nM and above 80%.
Turning to `N#Cc1ccc(O[C@H]2CC[C@H](NC(=O)c3cnc(N4CC5CN(CC6CCN(c7cc8c(cc7F)C(=O)N(C7CCC(=O)NC7=O)C8=O)CC6)CC5C4)nc3)CC2)cc1Cl` (stereo partly drawn) [Compound 272], the DC50 under setting [1] is below 10 nM. Also, the Dmax under setting [2] is above 80%.
On to `N#Cc1ccc(O[C@H]2CC[C@H](NC(=O)c3cnc(N4CC5(CCN(C6CCN(c7cc8c(cc7F)C(=O)N(C7CCC(=O)NC7=O)C8=O)CC6)CC5)C4)nc3)CC2)cc1Cl` (stereo partly drawn) [Compound 273, N-((1r,4r)-4-(3-chloro-4-cyanophenoxy)cyclohexyl)-2-(7-(1-(2-(2,6-dioxopiperidin-3-yl)-6-fluoro-1,3-dioxoisoindolin-5-yl)piperidine-4-yl)-2,7-diazaspiro[3.5]nonan-2-yl)pyrimidine-5-carboxamide], for which the Dmax is 60 to 80%. Also, under setting [1], the half-maximal degradation concentration (DC50) was 10 to 100 nM.
Regarding `N#Cc1ccc(O[C@H]2CC[C@H](NC(=O)c3ccc(N4CCC(CN5CCC6(CC5)CN(c5ccc7c(c5)C(=O)N(C5CCC(=O)NC5=O)C7=O)C6)CC4)nn3)CC2)cc1Br` (stereo partly drawn) [Compound 274, N-((1r,4r)-4-(3-bromo-4-cyanophenoxy)cyclohexyl)-6-(4-((2-(2-(2-,2,6-dioxopiperidin-3-yl)-1,3-dioxoisoindolin-5-yl)-2,7-diazaspiro[3.5]nonan-7-yl)methyl)piperidin-1-yl)pyridazine-3-carboxamide], the half-maximal degradation concentration (DC50) was below 10 nM and the greatest degradation seen (Dmax) was above 80%.
Taken in the same sequence, the figures for `Cc1cc(O[C@H]2CC[C@H](NC(=O)c3ccc(N4CCC(CN5CCC6(CC5)CN(c5ccc7c(c5)C(=O)N(C5CCC(=O)NC5=O)C7=O)C6)CC4)nn3)CC2)ccc1C#N` (stereo partly drawn) [Compound 275] were below 10 nM and above 80%.
Take `COc1cc(O[C@H]2CC[C@H](NC(=O)c3ccc(N4CCC(CN5CCC6(CC5)CN(c5ccc7c(c5)C(=O)N(C5CCC(=O)NC5=O)C7=O)C6)CC4)nn3)CC2)ccc1C#N` (stereo partly drawn) [Compound 276, N-((1r,4r)-4-(4-cyano-3-methoxyphenoxy)cyclohexyl)-6-(4-((2-(2-(2,6-dioxopiperidin-3-yl)-1,3-dioxoisoindolin-5-yl)-2,7-diazaspiro[3.5]nonan-7-yl)methyl)piperidin-1-yl)pyridazine-3-carboxamide]: under setting [1], the half-maximal degradation concentration (DC50) was below 10 nM. Besides, the Dmax under setting [2] is above 80%.
Taken in the same sequence, the figures for `N#Cc1ccc(O[C@H]2CC[C@H](NC(=O)c3cnc(N4CCN(C5CC6(CCN(c7cc8c(cc7F)C(=O)N(C7CCC(=O)NC7=O)C8=O)CC6)C5)CC4)cn3)CC2)cc1Cl` (stereo partly drawn) [Compound 277, N-((1r,4r)-4-(3-chloro-4-cyanophenoxy)cyclohexyl)-5-(4-(7-(2-(2,6-dioxopiperidin-3-yl)-6-fluoro-1,3-dioxoisoindolin-5-yl)-7-azaspiro[3.5]nonan-2-yl)piperazin-1-yl)pyrazine-2-carboxamide] were 10 to 100 nM and above 80%.
Turning to `N#Cc1ccc(OC2CCC(NC(=O)c3cnc(N4CCN(C5CC6(CCN(c7ccc8c(c7)C(=O)N(C7CCC(=O)NC7=O)C8=O)CC6)C5)CC4)cn3)CC2)cc1Cl` (stereo not drawn) [Compound 278, N-((1r,4r)-4-(3-chloro-4-cyanophenoxy)cyclohexyl)-5-(4-(7-(2-(2,6-dioxopiperidin-3-yl)-1,3-dioxoisoindolin-5-yl)-7-azaspiro[3.5]nonan-2-yl)piperazin-1-yl)pyrazine-2-carboxamide], for the setting “AR degradation, VCaP cells, 16 h, ELISA, Table 3-1”, the “Dmax (%)” value is given as “++++ (>80%)”. Besides, under setting [1], the DC50 was below 10 nM.
Compound `N#Cc1ccc(O[C@H]2CC[C@H](NC(=O)c3cnc(N4CCC(CN5CCC6(CC5)CN(c5ccc7c(c5)C(=O)N(C5CCC(=O)NC5=O)C7=O)C6)CC4)nn3)CC2)cc1Cl` (stereo partly drawn) [Compound 279, N-((1r,4r)-4-(3-chloro-4-cyanophenoxy)cyclohexyl)-3-(4-((2-(2-(2,6-dioxopiperidin-3-yl)-1,3-dioxoisoindolin-5-yl)-2,7-diazaspiro[3.5]nonane-7-yl)methyl)piperidin-1-yl)-1,2,4-triazine-6-formamide] gave a DC50 below 10 nM and a Dmax above 80%.
For the compound `N#Cc1ccc(O[C@H]2CC[C@H](NC(=O)c3cnc(N4CCC(N5CCC6(CC5)CN(c5ccc7c(c5)C(=O)N(C5CCC(=O)NC5=O)C7=O)C6)CC4)cn3)CC2)cc1Cl` (stereo partly drawn) [Compound 280, N-((1r,4r)-4-(3-chloro-4-cyanophenoxy)cyclohexyl)-5-(4-(2-(2-(2,6-dioxopiperidin-3-yl)-1,3-dioxoisoindolin-5-yl)-2,7-diazaspiro[3.5]nonan-7-yl)piperidin-1-yl)pyrazine-2-carboxamide], the DC50 under setting [1] lay in the range of 10 to 100 nM. The Dmax under setting [2] is above 80%.
In the case of `N#Cc1ccc(O[C@H]2CC[C@H](NC(=O)c3ccc(N4CCC(N5CCC6(CC5)CN(c5ccc7c(c5)C(=O)N(C5CCC(=O)NC5=O)C7=O)C6)CC4)nn3)CC2)cc1Cl` (stereo partly drawn) [Compound 281, N-((1r,4r)-4-(3-chloro-4-cyanophenoxy)cyclohexyl)-6-(4-(2-(2-(2,6-dioxopiperidin-3-yl)-1,3-dioxoisoindolin-5-yl)-2,7-diazaspiro[3.5]nonan-7-yl)piperidin-1-yl)pyridazine-3-formamide], the 50% degradation concentration (DC50) under setting [1] was below 10 nM. Moreover, the maximal degradation (Dmax) under setting [2] is above 80%.
Taken in the same sequence, the figures for `N#Cc1ccc(O[C@H]2CC[C@H](NC(=O)c3ccc(N4CC5(CCN(CC6CCN(c7ccc8c(c7)C(=O)N(C7CCC(=O)NC7=O)C8=O)CC6)CC5)C4)nn3)CC2)cc1Cl` (stereo partly drawn) [Compound 282, N-((1r,4r)-4-(3-chloro-4-cyanophenoxy)cyclohexyl)-6-(7-((1-(2-(2,6-dioxopiperidin-3-yl)-1,3-dioxoisoindolin-5-yl)piperidine-4-yl)methyl)-2,7-diazaspiro[3.5]nonan-2-yl)pyridazine-3-formamide] were below 10 nM and above 80%.
For `N#Cc1ccc(O[C@H]2CC[C@H](NC(=O)c3cnc(N4CC5(CCN(CC6CCN(c7ccc8c(c7)C(=O)N(C7CCC(=O)NC7=O)C8=O)CC6)CC5)C4)cn3)CC2)cc1Cl` (stereo partly drawn) [Compound 283, N-((1r,4r)-4-(3-chloro-4-cyanophenoxy)cyclohexyl)-6-(7-((1-(2-(2,6-dioxopiperidin-3-yl)-1,3-dioxoisoindolin-5-yl)piperidine-4-yl)methyl)-2,7-diazaspiro[3.5]nonan-2-yl)pyrazine-3-formamide], in that order: below 10 nM and above 80%.
As for `N#Cc1ccc(OC2CCC(NC(=O)c3ccc(N4CCC5(CC4)CN(CC4CCN(c6cc7c(cc6F)C(=O)N(C6CCC(=O)NC6=O)C7=O)CC4)C5)nn3)CC2)cc1C(F)(F)F` (stereo not drawn) [Compound 285, N-((1r,4r) 4-(4-cyano-3-(trifluoromethyl)phenoxy)cyclohexyl)-6-(2-((1-(2,6-dioxopiperidin-3-yl)-6-fluoro-1,3-dioxoisoindolin-5-yl)piperidine-4-yl)methyl)-2,7-diazaspiro [3.5] nonan-7-yl)pyridazine-3-formamide], the “Dmax (%)” value was “++++ (key: A: >80%; B: 79%-50%; C: 49%-25%; D: <25%)”. Moreover, for the setting “read-out: DC50”, the 50% degradation concentration (DC50) is below 10 nM.
With `N#Cc1ccc(O[C@H]2CC[C@H](NC(=O)c3ccc(N4CCN(C[C@@H]5[C@H]6CN(c7cc8c(cc7F)C(=O)N(C7CCC(=O)NC7=O)C8=O)C[C@@H]56)CC4)cn3)CC2)cc1Cl` (stereo partly drawn) [Compound 286], the DC50 under setting [1] fell in the range of 10 to 100 nM. Further, the Dmax under setting [2] is 60 to 80%.

Source of the values: patent US20230091225A1, “Bifunctional chimeric heterocyclic compounds for targeted degradation of androgen receptors and use thereof” (HINOVA PHARMACEUTICALS INC., priority 2019, published 2023).
